Experimental data: patent US20230159467A1, “NOVEL COMPOUNDS USEFUL IN THE TREATMENT AND/OR PREVENTION OF A DISEASE, DISORDER OR CONDITION ASSOCIATED WITH ANGIOTENSIN II” (Vicore Pharma AB, priority 2020, published 2023)

Columns and labels:
human AT1R = biological target: T1, human AT1R (Homo sapiens, UniProt P30556); assay type: binding; conditions: HEK-293 cell membranes
T1 construct: host or cells: HEK-293
T1 sequence (P30556 1-359): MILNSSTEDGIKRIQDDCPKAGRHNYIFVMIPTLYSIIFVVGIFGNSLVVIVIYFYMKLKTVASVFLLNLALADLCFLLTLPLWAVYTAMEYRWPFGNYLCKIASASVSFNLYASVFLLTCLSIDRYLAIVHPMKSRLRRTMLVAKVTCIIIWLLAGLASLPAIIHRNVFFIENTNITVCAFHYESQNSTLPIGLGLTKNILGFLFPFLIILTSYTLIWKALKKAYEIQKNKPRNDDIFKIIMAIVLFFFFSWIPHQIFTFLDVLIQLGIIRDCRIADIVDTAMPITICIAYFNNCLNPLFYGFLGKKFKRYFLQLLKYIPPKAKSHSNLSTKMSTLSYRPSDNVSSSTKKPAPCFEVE

human AT2R = biological target: T2, human AT2R (Homo sapiens, UniProt P50052); assay type: binding; conditions: HEK-293 cell membranes
T2 construct: host or cells: HEK-293
T2 sequence (P50052 1-363): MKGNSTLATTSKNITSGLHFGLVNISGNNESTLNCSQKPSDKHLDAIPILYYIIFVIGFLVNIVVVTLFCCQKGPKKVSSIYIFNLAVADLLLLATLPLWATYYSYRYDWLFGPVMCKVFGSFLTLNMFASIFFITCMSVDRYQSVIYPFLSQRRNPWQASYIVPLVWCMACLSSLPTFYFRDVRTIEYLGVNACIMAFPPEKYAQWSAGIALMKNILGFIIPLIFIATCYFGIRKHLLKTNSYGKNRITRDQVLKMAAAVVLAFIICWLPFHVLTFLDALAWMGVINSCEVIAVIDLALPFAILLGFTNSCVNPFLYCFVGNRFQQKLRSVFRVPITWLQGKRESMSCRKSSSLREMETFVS

[1] = Stability in human liver microsomes; assay type: in vitro ADME; conditions: half-life
Protocol: Stability in liver microsomes. Human, mouse and rat liver microsomes were used to assess the metabolic stability for the compounds. Metabolic stability was determined in 0.5 mg/mL human, mouse or rat liver microsomes at a compound concentration of 1 μM in 100 mM potassium phosphate buffer (pH 7.4) in a total incubation volume of 500 μL by Eurofins. The assay matrix was: human liver microsomes: mixed gender and pool of 50, rat liver microsomes: male, Sprague-Dawley, pool of 100 or more and mouse liver microsomes: male,CD-1, pool of 250 or more. Final microsomal protein concentration: 0.1mg/mL. The test concentration was 0.1 μM with 0.01% DMSO, 0.25% acetonitrile and 0.25% methanol by default. […] The reaction was initiated by adding NADPH-generating system and was incubated for 0, 15, 30, 45, and 60 min. The reaction was stopped by transferring the incubation mixture to acetonitrile/methanol. Samples were then mixed and centrifuged. Four reference compounds were tested in each assay. Propranolol and imipramine are relatively stable, whereas verapamil and terfenadine are readily metabolized inhuman liver microsomes. Samples were analyzed by HPLC-MS/MS using selected reaction monitoring. The HPLC system consisted of a binary LC pump with autosampler, a C-18 column, and a gradient. Peak areas corresponding to the test compound were recorded. The compound remaining was calculated by comparing the peak area at each time point to time zero. The half-life was calculated from the slope of the initial linear range of the logarithmic curve of compound remaining (%) vs. time, assuming first order kinetics. In addition, the intrinsic clearance (Clint) was calculated.^19,20

Row | Ki (human AT1R) | Ki (human AT2R) | Stability in liver microsomes HLM [1] | Structure (SMILES)
1 | 8000 nM | 11 nM |  | CCCCOC(=O)NS(=O)(=O)c1sc(CC(C)C)nc1-c1ccc(Cn2ccnc2C2CC2)cc1 [Example 27, Butyl ((4-(4-((2-cyclopropyl-1H-imidazol-1-yl)methyl)phenyl)-2-isobutylthiazol-5-yl)sulfonyl)carbamate]
2 | 13000 nM | 99 nM |  | COC(=O)NS(=O)(=O)c1sc(CC(C)C)nc1-c1ccc(Cn2ccnc2C2CC2)cc1 [Example 26, Methyl ((4-(4-((2-cyclopropyl-1H-imidazol-1-yl)methyl)phenyl)-2-isobutylthiazol-5-yl)sulfonyl)carbamate]
3 |  | 4.8 nM |  | COC(=O)NS(=O)(=O)c1ccc(CC(C)C)cc1-c1ccc(Cn2ccnc2C2CC2)cc1 [Example 39A, Methyl ((5-isobutyl-4′-((2-(cyclopropan-2-yl)-1H-imidazol-1-yl)methyl)-[1,1′-biphenyl]-2-yl)sulfonyl)carbamate]
4 | ~10000 nM | 15 nM |  | CCCCOC(=O)NS(=O)(=O)c1ccc(CC(C)C)cc1-c1ccc(Cn2ccnc2C(C)(C)C)cc1 [Example 2A, Butyl ((4′-((2-(tert-butyl)-1H-imidazol-1-yl)methyl)-5-isobutyl-[1,1′-biphenyl]-2-yl)sulfonyl)carbamate]
5 |  | 9.62 nM |  | CCCCOC(=O)NS(=O)(=O)c1sc(CC(C)C)cc1-c1ccc(Cn2ccnc2C(C)(C)O)cc1 [Example 40A]
6 |  | > 1000 nM |  | CCCc1nc(-c2ccc(Cn3ccnc3C(C)(C)F)cc2)c(S(=O)(=O)NC(=O)OC)s1 [Example 46, Methyl ((4-(4-((2-(2-fluoropropan-2-yl)-1H-imidazol-1-yl)methyl)phenyl)-2-propylthiazol-5-yl)sulfonyl)carbamate]
7 |  | 3.26 nM |  | COC(=O)NS(=O)(=O)c1ccc(CC(C)C)cc1-c1ccc(Cn2ccnc2C(C)C)cc1 [Example 36, Methyl ((5-isobutyl-4′-((2-(isopropan-2-yl)-1H-imidazol-1-yl)methyl)-[1,1′-biphenyl]-2-yl)sulfonyl)carbamate]
8 |  | 3.74 nM |  | COC(=O)NS(=O)(=O)c1sc(CC(C)C)cc1-c1ccc(Cn2ccnc2C(C)(C)F)cc1 [Example 43]
9 |  | 1.66 nM |  | CCCCOC(=O)NS(=O)(=O)c1sc(CC(C)C)cc1-c1ccc(Cn2ccnc2C(C)(C)F)cc1 [Example 42]
10 | 1000 nM | 41 nM | >60 min | CCCCOC(=O)NS(=O)(=O)c1sc(CC(C)C)nc1-c1ccc(Cn2ccnc2-c2nccs2)cc1 [Example 16, Butyl ((2-isobutyl-4-(4-((2-(thiazol-2-yl)-1H-imidazol-1-yl)methyl)phenyl)thiazol-5-yl)su Ifonyl)carbamate]
11 | 1000 nM | 350 nM |  | CCCCOC(=O)NS(=O)(=O)c1sc(CCC)nc1-c1ccc(Cn2ccnc2-c2nccs2)cc1 [Example 21, Butyl ((2-propyl-4-(4-((2-(thiazol-2-yl)-1H-imidazol-1-yl)methyl)phenyl)thiazol-5-yl)sulfonyl)carbamate]
12 |  | > 1000 nM |  | CCCCOC(=O)NS(=O)(=O)c1sc(CCC)nc1-c1ccc(Cn2ccnc2C(C)(C)F)cc1 [Example 45, Butyl ((4-(4-((2-(2-fluoropropan-2-yl)-1H-imidazol-1-yl)methyl)phenyl)-2-propylthiazol-5-yl)sulfonyl)carbamate]
13 |  |  | >60 min | COC(=O)NS(=O)(=O)c1sc(CC(C)C)nc1-c1ccc(Cn2ccnc2C(C)O)cc1 (centres unmarked) [Example 23, Methyl ((4-(4-((2-(1-hydroxyethyl)-1H-imidazol-1-yl)methyl)phenyl)-2-isobutylthiazol-5-yl)sulfonyl)carbamate]
14 |  | 475 nM |  | COC(=O)NS(=O)(=O)c1sc(CC(C)C)nc1-c1ccc(Cn2ccnc2C(C)(C)F)cc1 [Example 48, Methyl ((4-(4-((2-(2-fluoropropan-2-yl)-1H-imidazol-1-yl)methyl)phenyl)-2-isobutylthiazol-5-yl)sulfonyl)carbamate]
15 |  | 5.64 nM |  | CCCCOC(=O)NS(=O)(=O)c1ccc(CC(C)C)cc1-c1ccc(Cn2ccnc2C2CC2)cc1 [Example 38A, Butyl ((5-isobutyl-4′-((2-(cyclopropan-2-yl)-1H-imidazol-1-yl)methyl)-[1,1′-biphenyl]-2-yl)sulfonyl)carbamate]
16 |  | 56 nM |  | CCCCOC(=O)NS(=O)(=O)c1sc(CC(C)C)nc1-c1ccc(Cn2ccnc2C(C)(C)F)cc1 [Example 47, Butyl ((4-(4-((2-(2-fluoropropan-2-yl)-1H-imidazol-1-yl)methyl)phenyl)-2-isobutylthiazol-5-yl)sulfonyl)carbamate]
17 |  | 2.22 nM |  | CCCCOC(=O)NS(=O)(=O)c1ccc(CC(C)C)cc1-c1ccc(Cn2ccnc2C(C)C)cc1 [Example 37A, Butyl ((5-isobutyl-4′-((2-(isopropan-2-yl)-1H-imidazol-1-yl)methyl)-[1,1′-biphenyl]-2-yl)sulfonyl)carbamate]
18 |  | 39 nM | >60 min | CCCCOC(=O)NS(=O)(=O)c1sc(CCC)nc1-c1ccc(Cn2ccnc2C(C)C)cc1 [Example 15, Butyl ((4-(4-((2-isopropyl-1H-imidazol-1-yl)methyl)phenyl)-2-propylthiazol-5-yl)sulfonyl)carbamate]
19 | 15000 nM | 36 nM |  | CCCCOC(=O)NS(=O)(=O)c1sc(CCC)nc1-c1ccc(Cn2ccnc2C2CC2)cc1 [Example 29, Butyl ((4-(4-((2-cyclopropyl-1H-imidazol-1-yl)methyl)phenyl)-2-propylthiazol-5-yl)sulfonyl)carbamate]
20 |  | 2.54 nM |  | COCCOC(=O)NS(=O)(=O)c1sc(CC(C)C)cc1-c1ccc(Cn2ccnc2C(C)(C)C)cc1 [Example 44]
21 | ~1000 nM | 190 nM |  | CCCc1nc(-c2ccc(Cn3ccnc3C(C)(C)C)cc2)c(S(=O)(=O)NC(=O)OC)s1 [Example 5, Methyl ((4-(4-((2-(tert-butyl)-1H-imidazol-1-yl)methyl)phenyl)-2-propylthiazol-5-yl)sulfonyl)carbamate]
22 |  | 3.08 nM |  | COC(=O)NS(=O)(=O)c1sc(CC(C)C)cc1-c1ccc(Cn2ccnc2C(C)(C)O)cc1 [Example 41]
23 | ~1000 nM | 71 nM |  | CCCCOC(=O)NS(=O)(=O)c1sc(CCC)nc1-c1ccc(Cn2ccnc2C(C)(C)C)cc1 [Example 6, Butyl ((4-(4-((2-(tert-butyl)-1H-imidazol-1-yl)methyl)phenyl)-2-propylthiazol-5-yl)sulfonyl) carbamate]
24 | 20000 nM | 274 nM |  | CCCc1nc(-c2ccc(Cn3ccnc3C3CC3)cc2)c(S(=O)(=O)NC(=O)OC)s1 [Example 28, Methyl ((4-(4-((2-cyclopropyl-1H-imidazol-1-yl)methyl)phenyl)-2-propylthiazol-5-yl)sulfonyl)carbamate]
25 |  | 1600 nM |  | CCCc1nc(-c2ccc(Cn3ccnc3C(C)O)cc2)c(S(=O)(=O)NC(=O)OC)s1 (centres unmarked) [Example 25, Methyl ((4-(4-((2-(1-hydroxyethyl)-1H-imidazol-1-yl)methyl)phenyl)-2-propylthiazol-5-yl)sulfonyl)carbamate]

Row | Structure (SMILES) | Ki (human AT1R) | Ki (human AT2R) | Stability in liver microsomes HLM [1]
26 | CCCCOC(=O)NS(=O)(=O)c1ccc(CC(C)C)cc1-c1ccc(Cn2ccnc2-c2nccs2)cc1 [Example 35B, Potassium (butoxycarbonyl) ((5-isobutyl-4′-((2-(thiazol-2-yl)-1H-imidazolyl)methyl)-[1,1′-biphenyl]-2-yl)sulfonyl)amide] | 7000 nM | 6.7 nM | 
27 | COC(=O)NS(=O)(=O)c1sc(CC(C)C)nc1-c1ccc(Cn2ccnc2C(C)C)cc1 [Example 20, Methyl ((2-isobutyl-4-(4-((2-isopropyl-1H-imidazol-1-yl)methyl)phenyl)thiazol-5-yl)sulfonyl)carbamate] |  | 27 nM | >60 min
28 | CCCCOC(=O)[N-]S(=O)(=O)c1ccc(CCC)cc1-c1ccc(Cn2ccnc2C(C)(C)O)cc1.[K+] [Example 31B, Potassium (butoxycarbonyl) ((4′-((2-(2-hydroxypropan-2-yl)-1H-imidazol-1-yl)methyl)-5-propyl-[1,1′-biphenyl]-2-yl)sulfonyl)amide] |  |  | 20 min
